# Earlier results in patent US7816357B2, “Azabicyclic heterocycles as cannabinoid receptor modulators” (Bristol-Myers Squibb Company, priority 2003, dated 2010).
# Test system: human subjects
# Conditions: 16 week trial period, published Phase IIb data
compound,measurement,value
Cc1c(C(=O)NN2CCCCC2)nn(-c2ccc(Cl)cc2Cl)c1-c1ccc(Cl)cc1 [SR-141716],body weight in human subjects,dose-dependently reduced body weight
